“Also recorded” adds a separate entry of the source.
Key:
[1] = tested on: human islets; experiment: Lysis of islet cells, PI staining analysed by COPAS; format: cell-based; conditions: AB0-compatible plasma, 37° C., 30 minutes, 10 μM compstatin
Procedure: (§1) Complex object parametric analyzer and sorter (COPAS) analysis: The fluorescence-stained islets were analyzed using a complex object parametric analyzer and sorter (COPAS; Union Biometrica, Somerville, Mass.), which is a large-particle-based flow cytometry instrument. One thousand islets were collected using a 488/514 multi-line laser, and positive cells were sorted out for further analysis by confocal microscopy. The COPAS flow cytometry data were analyzed using CellQuest™ Pro software (BD Biosciences Immunocytometry Systems). Data are reported as mean fluorescent intensity (MFI).
(§2) Analysis of islets by COPAS and confocal microscopy: Approximately 5000 islets were added to 200 μl of human AB0-compatible hirudin-plasma or whole blood in heparinized test tubes. In some experiments, AB0-compatible hirudin-treated plasma was pre-incubated with or without 10 μM Ac-ICV(1MeW)[…]-NH2 (SEQ ID NO: 4; Katragadda et al., (2006) J Med Chem 49:4616-4622), a potent compstatin analog, for 15 minutes at 37° C. before the islets were added. The mixture of islets and plasma was incubated, with gentle shaking, at 37° C. for up to 30 minutes.
(§3) After centrifugation and addition of 10 mM EDTA (final concentration), the supernatants were stored at −70° C. The remaining islets were washed twice in cold PBS as described above. […]

[2] = tested on: complement activation; experiment: Complement inhibition assay in 10% human serum (bound C3 fragments in microtiter wells); format: biochemical
Procedure: Complement inhibition assay: One hundred microliters of 10% human serum (v/v), diluted in veronal buffer with 1 mM Ca^2+, 0.3 mM Mg^2+, 1% (w/v) BSA, and 0.05% (v/v) Tween 20, was incubated in the presence of serially diluted LMW-DS and/or compstatin in wells of microtiter plates for 30 minutes at 37° C. The wells were then washed with PBS containing 0.05% (v/v) Tween 20, and the bound C3 fragments were detected using […], of HRP-conjugated anti-C3c (Dako AS, Glostrup, Denmark).

[3] = tested on: porcine islets; experiment: Binding of C3b/iC3b to porcine islets incubated in human hirudin-treated plasma; format: cell-based, pig; conditions: compstatin 10 μM
Procedure: Treatment of porcine islets with human plasma: Approximately 1000 pig islets/40 μL of plasma (typically 5000 islets in 200 μL) were incubated in human hirudin-treated plasma in heparinized test tubes. Five different islet preparations and five different plasma preparations were used in these experiments. In some experiments, hirudin-treated plasma was preincubated with 10 μM (final concentration) of the potent compstatin analog, Ac-ICV(1MeW)[…]-NH2 (SEQ ID NO: 4; Katragadda et al., (2006) J Med. Chem. 49 (15): 4616), for 15 minutes at 37° C. before the islets were added. The mixture of islets and plasma was then incubated, with gentle shaking, at 37° C. for up to 30 min. […]
For all immunostaining experiments, the islets were incubated, while gently rotating on ice, for 30 minutes in the presence of an individual antibody. After being washed with PBS, the islets were treated with 1% formaldehyde (Apoteket, Gothenburg, Sweden) and kept on ice until analyzed.
Complex object parametric analyzer and sorter (COPAS) analysis: The fluorescence-stained islets were analyzed using a complex object parametric analyzer and sorter (COPAS; Union Biometrica, Somerville, Mass.), which is a large particle-based flow cytometry instrument previously used for islet analysis (Fernandez et al., (2005) Transplantation 80 (6): 729). […]

[4] = tested on: human islets; experiment: Binding of C3b/iC3b to human islets incubated in AB0-compatible hirudin-treated plasma (COPAS, confocal microscopy); format: cell-based
Procedure: as §1
Confocal microscopy: Stained islets were contained in a drop of PBS in a small Petri dish and protected from light before examination in the confocal microscope (Zeiss 510 Meta confocal, Carl Zeiss, Jena, Germany). Examination of the stained islets was performed using the 488-nm laser at 10× magnification. […]
FITC-labeled antibodies recognizing the following proteins were diluted and used according to the manufacturer's recommendations: Clq (AbCam, Cambridge, UK), C3c (for detection of C3b and iC3b), C4, C9, mannose-binding lectin (MBL), IgG, and IgM (DakoCytomation, Glostrup, Denmark). […] After washing, the islets were treated with 1% formaldehyde (Apoteket, Gothenburg, Sweden) and held on ice until analyzed by COPAS and confocal microscopy.

[5] = tested on: human islets; experiment: C-peptide release from human islets in AB0-compatible plasma (ELISA); format: cell-based; conditions: 30 minutes at 37° C., 10 μM compstatin
Procedure: as §2
After centrifugation and addition of 10 mM EDTA (final concentration), the supernatants were stored at −70° C. The remaining islets were washed twice in cold PBS as described above. In order to visualize necrotic cells, propidium iodide (PI) was added to the islets 5 minutes before COPAS analysis. Islets that had not been incubated in plasma were used as controls. The islets were also examined by confocal microscopy.
C-peptide: Plasma was diluted 1/200 and analyzed using a C-peptide ELISA (Mercodia, Uppsala, Sweden).

[6] = tested on: C3a and sC5b-9; experiment: C3a and sC5b-9 generation in supernatants of plasma-incubated human islets (ELISA); format: cell-based
Procedure: as §2, §3
C3a: Plasma was diluted 1/1000 in working buffer and analyzed as described previously (Enkdahl et al., 1992, Scand J Immunol 35: […]). […] Bound C3a was detected with biotinylated rabbit anti-C3a diluted 1/150, followed by HRP-conjugated streptavidin (Amersham, Little Chalfort, UK), diluted 1/500. […]
sC5b-9: Plasma was analyzed using a modification of the EIA described by Mollnes et al., 1985, Scand J Immunol 22: 197-202. Plasma diluted 1/5 was added to microtiter plates coated with anti-neoC9 monoclonal antibody MCaE11. sC5b-9 was detected with a polyclonal anti-C5 antibody diluted 1/500 (Dako A/S, Denmark), followed by HRP-conjugated anti-rabbit Ig diluted 1/500 (Dako). […]

[7] = Blood cell counts, liver and renal function in monkeys transplanted with porcine islets; format: in vivo, Cynomolgus monkeys (Macaca fascicularis); conditions: 24 hours after islet transplantation; in U/L (unit assumed)
[8] = tested on: porcine islet grafts; experiment: Histological evaluation of grafted pig islets 24 h after intraportal transplantation
[9] = Plasma APTT and LMW-DS concentration in transplanted monkeys; format: in vivo, Cynomolgus monkeys (Macaca fascicularis)
Procedure: Blood samples: […] […] Analyses of blood and plasma samples: Activated Partial Thromboplastin Time (APTT) measurements were performed as previously described (Johansson et al., (2006) Am J. Transplant. 6 (2): 305).

[10] = tested on: IBMIR
Procedure: Blood samples: All blood samples from monkeys were drawn from a femoral vein catheter at 0, 20, and 40 min and at 1, 3 and 24 h after transplantation. Blood was drawn from healthy human blood donors into 7-mL tubes containing […] of hirudin, a specific inhibitor of thrombin (Refludan; Pharmion Ltd, Cambridge, UK). To obtain plasma, the samples were centrifuged at 4500×g for 5 min. If not immediately analyzed for activated partial thromboplastin time (APTT), the samples were stored at −70° C.
Platelet counts and differential leukocyte counts were obtained using a Coulter ACT-diff analyzer (Beckman Coulter, Miami, Fla.) and EDTA-treated blood. Plasma levels of thrombin-antithrombin (TAT) were quantified using commercially available EIA kits (TAT, Behringswerke, Marburg, Germany). C3a generation was measured in plasma according to the method of Nilsson Ekdahl et al. ((1992) Scand J. Immunol. 35 (1): 85), and sC5b-9 was analyzed using a modification of the enzyme immunoassay described by Nilsson Ekdahl et al. ((1992) Scand J. Immunol. 35 (1): 85) and Mollnes et al. ((1995) Artif Organs 19 (9): 909).

[11] = tested on: porcine islet grafts; experiment: Immunohistochemical staining of grafted pig islets 24 h after intraportal transplantation
[12] = both treated monkeys compared to the controls

Question: With Ac-ICV(1MeW)QDWGAHRCT-NH2 [compstatin] as the substance, how does the “PI staining (lysis of islet cells)” value [1] read?
Answer: totally abrogated

Question: And the “inhibition of complement activation” value ([2]; compstatin 5 μM)?
Answer: total inhibition

Question: And the “inhibition of complement activation” value ([2]; compstatin above 0.5 μM)?
Answer: gradually inhibited

Question: And the “inhibition of complement activation” value ([2]; compstatin below 0.5 μM)?
Answer: no effect

Question: And the “binding of C3b/iC3b to the islets” value [3]?
Answer: significantly reduced

Question: And the “C3b/iC3b binding by confocal microscopy” value ([4]; human islets in plasma, 5 and 30 minutes)?
Answer: totally prevented

Question: And the “binding of C3b/iC3b to the islets” value ([4]; human islets, AB0-compatible plasma, compstatin 10 μM, COPAS)?
Answer: significantly reduced; also recorded: abolished

Question: And the “release of C-peptide” value [5]?
Answer: totally inhibited

Question: And the “generation of fluid-phase complement activation products (C3a, sC5b-9)” value ([6]; human islets, AB0-compatible plasma, compstatin 10 μM)?
Answer: abrogated

Question: What does the source list for Heparin?
Answer: ALT [7]: 116.8±47.7; AST [7]: 288.0±130.4; completely preserved islets (score 0 in all categories) ([8]; control monkey M-10): 22%; APTT ([9]; heparin-treated monkeys, throughout the whole study period): 25 to 40 s (s)

Question: For “Low molecular weight dextran sulfate [LMW-DS]”, which “inhibition of complement activation” value ([2]; LMW-DS above 100 mg/L, absence of compstatin) is on record?
Answer: more pronounced

Question: What about the “inhibition of complement activation” value ([2]; LMW-DS between 10 and 100 mg/L, absence of compstatin) of the same substance?
Answer: only marginally

Question: And the “histology of the transplanted grafts” value ([8]; 24 h after transplantation, semiquantitative scoring)?
Answer: well kept

Question: And the “completely preserved islets (score 0 in all categories)” value ([8]; monkey M-6 as printed)?
Answer: 37.2%

Question: What about the “completely preserved islets (score 0 in all categories)” value ([8]; monkey M-9) of the same substance?
Answer: 44%

Question: And the APTT ([9]; LMW-DS-treated monkeys, 15 minutes after islet infusion)?
Answer: around 100 s

Question: And the APTT ([9]; monkey M-5, after 24 hours)?
Answer: 101 s

Question: And the APTT ([9]; monkey M-7, after 24 hours)?
Answer: 66 s

Question: What about the APTT ([9]; monkey M-9, after 24 hours) of the same substance?
Answer: 107 s

Question: And the “increase of coagulation marker TAT” value ([10]; LMW-DS-treated monkeys vs heparin controls)?
Answer: effectively inhibited

Question: And the “complement activation parameter C3a” value [10, 12]?
Answer: suppressed

Question: And the “complement activation parameter sC5b-9” value [10, 12]?
Answer: suppressed

Question: What about the TAT ([10]; monkey M-5) of the same substance?
Answer: totally suppressed

Question: What about the “deposition of C3 fragment and C9 on the surface of the islets” value ([11]; 24 h grafts) of the same substance?
Answer: no clear inhibition

Question: And the “CD3+ T cell infiltration” value ([11]; vs controls M8 and M10)?
Answer: effectively suppressed

Question: What about the “CD68+ macrophages in grafts” value ([11]; vs heparin controls, p=0.002) of the same substance?
Answer: abrogated

Question: And the “neutrophil elastase positive PMNs in grafts” value ([11]; vs heparin controls, p=0.04)?
Answer: abrogated

Question: And the “CD41+ platelets in grafts” value ([11]; vs heparin controls, p=0.056)?
Answer: abrogated

Question: With hirudin as the substance, how does the “generation of C3a and sC5b-9” value ([6]; islets in whole blood anticoagulated with hirudin, n=4) read?
Answer: no effect
